Assay results as given in patent US20150315241A1, “Antibiotic Peptides” (priority 2007, published 2015).
In brackets after ≈: the same amount, converted by molar mass. Where a SMILES comes first, the peptide text is derived from it. [ ]: non-standard residue; d: D form. The star is where a group is joined. Orn(α-tetramethylguanidino) = CN(C)C(=N[C@@H](CCCN)C(=O)*)N(C)C; Hyp = O=C(O)[C@@H]1C[C@@H](O)CN1; Cha = N[C@@H](CC1CCCCC1)C(=O)O; Cit = NC(=O)NCCC[C@H](N)C(=O)O; Tle = CC(C)(C)[C@H](N)C(=O)O; Ac6c = NC1(C(=O)O)CCCCC1; Orn = NCCC[C@H](N)C(=O)O; βAla = NCCC(=O)O

Key:
M. luteus ATCC 10240 = format: cell-based, Micrococcus luteus; conditions: ATCC 10240, 20 h
Protocol: (§1) The minimal inhibition concentrations (MIC) of the apidaecin-derived peptides and peptide-derivatives were determined by a growth inhibition assay using a serial peptide dilution in sterilized round-bottom 96-well plates (polystyrene, U-bottom, Greiner Bio-One GmbH) with a final volume of 100 μL per well. The bacteria, e.g., E. coli BL21 A1, were grown in nutrient broth (NB, Carl Roth GmbH+Co. KG, Karlsruhe, Germany) at 37° C. over night. To each well of the 96-well plate, 50 μL of the overnight culture adjusted to 5×10^6 CFU/mL in 1% TSB were added. Lyophilized peptides and peptidomimetics were dissolved in 1% TSB (tryptic soy broth) or water to give a final concentration of 250 μg/mL. Fifty μL of the peptide or peptidomimetics solution were added to the first well of a row on the plate and mixed. Fifty μL of the first well containing the peptide solution were transferred to the second well, mixed and again 50 μL transferred to the next well and so on. Thereby, a two-fold dilution series was obtained starting at 250 μg/mL in the first well down to 120 ng/mL in the 12th well of a row giving a final peptide or peptidomimetics concentration from 125 μg/mL (well 1) to 60 ng/mL (well 12). Plates were incubated at 37° C. for 20 hrs. The absorbance was measured at 595 nm using a TECAN micro plate spectrophotometer (Tecan, Germany). All peptides and peptidomimetics were measured in triplicates. Sterilized water was used as a negative control.
(§2) The bacteria strains were tested: • Eschericha coli 1103, 10233, BL 21 AI, DC 2, • Klebsiella pneumoniae 681, • Micrococcus luteus ATCC 10240, • Mycobacterium vaccae • Bactillus subtillis 347.

E. coli BL 21 AI = assay: Growth inhibition assay (MIC); format: cell-based, Escherichia coli; conditions: 1% TSB, 37° C., 20 hrs
Protocol: as §1, §2

Compound | MIC M. luteus ATCC 10240 (M. luteus ATCC 10240) [µg/mL] | MIC E. coli BL 21 AI (E. coli BL 21 AI) [µg/mL]
CC[C@H](C)[C@H](NC(=O)[C@H](CCCNC(=N)N)NC(=O)[C@@H]1CCCN1C(=O)[C@H](Cc1c[nH]cn1)NC(=O)[C@@H]1CCCN1C(=O)[C@@H]1CCCN1C(=O)[C@H](CCCNC(=N)N)NC(=O)[C@@H]1CCCN1C(=O)[C@H](CCC(N)=O)NC(=O)[C@@H]1CCCN1C(=O)[C@@H](NC(=O)[C@H](Cc1ccc(O)cc1)NC(=O)[C@@H](NC(=O)[C@@H]1CCCN1C(=O)[C@H](CCCNC(=N)N)NC(=O)[C@H](CC(N)=O)NC(=O)[C@H](CC(N)=O)NC(=O)[C@@H](N)CCCN)C(C)C)[C@@H](C)CC)C(N)=O [compound 62] (H-[Orn]NNRPVYIPQPRPPHPRI-NH2) | 7.81 (≈ 3.61 µM) | 1.95 (≈ 0.901 µM)
CC[C@H](C)[C@H](NC(=O)[C@H](CCCNC(=N)N)NC(=O)[C@@H]1CCCN1C(=O)[C@H](Cc1c[nH]cn1)NC(=O)[C@@H]1CCCN1C(=O)[C@@H]1CCCN1C(=O)[C@H](CCCNC(=N)N)NC(=O)[C@@H]1CCCN1C(=O)[C@H](CCC(N)=O)NC(=O)[C@@H]1CCCN1C(=O)[C@@H](NC(=O)[C@H](Cc1ccc(O)cc1)NC(=O)[C@@H](NC(=O)[C@@H]1CCCN1C(=O)[C@H](CCCNC(=N)N)NC(=O)[C@H](CC(N)=O)NC(=O)[C@H](CC(N)=O)NC(=O)[C@H](CCCN)NC(C)=O)C(C)C)[C@@H](C)CC)C(N)=O [compound 63] (Ac-[Orn]NNRPVYIPQPRPPHPRI-NH2) | 3.91 (≈ 1.77 µM) | 3.91 (≈ 1.77 µM)
CC[C@H](C)[C@H](NC(=O)[C@H](Cc1ccc(O)cc1)NC(=O)[C@@H](NC(=O)[C@@H]1CCCN1C(=O)[C@H](CCCNC(=N)N)NC(=O)[C@H](CC(N)=O)NC(=O)[C@H](CC(N)=O)NC(=O)[C@H](CCCN)NC(C)=O)C(C)C)C(=O)N1CCC[C@H]1C(=O)N[C@@H](CCC(N)=O)C(=O)N1CCC[C@H]1C(=O)N[C@@H](CCCNC(=N)N)C(=O)N1CCC[C@H]1C(=O)N1CCC[C@H]1C(=O)N[C@@H](Cc1c[nH]cn1)C(=O)N1CCC[C@H]1C(=O)N[C@@H](CCCNC(=N)N)C(=O)N[C@H](CC(C)C)C(N)=O [compound 72] (Ac-[Orn]NNRPVYIPQPRPPHPR[dL]-NH2) | 7.81 (≈ 3.54 µM) | >125
CC[C@H](C)[C@H](NC(=O)[C@H](Cc1ccc(O)cc1)NC(=O)[C@@H](NC(=O)[C@@H]1CCCN1C(=O)[C@H](CCCNC(=N)N)NC(=O)[C@H](CC(N)=O)NC(=O)[C@H](CC(N)=O)NC(=O)[C@H](CCCN)NC(C)=O)C(C)C)C(=O)N1CCC[C@H]1C(=O)N[C@@H](CCC(N)=O)C(=O)N1CCC[C@H]1C(=O)N[C@@H](CCCNC(=N)N)C(=O)N1CCC[C@H]1C(=O)N1CCC[C@H]1C(=O)N[C@@H](Cc1c[nH]cn1)C(=O)N1CCC[C@H]1C(=O)N[C@@H](CCCNC(=N)N)C(=O)N[C@H](C(N)=O)C(C)(C)C [compound 73] (Ac-[Orn]NNRPVYIPQPRPPHPR[Tle]-NH2) | 7.81 (≈ 3.54 µM) | 62.5 (≈ 28.3 µM)
CC[C@H](C)[C@H](NC(=O)[C@H](Cc1ccc(O)cc1)NC(=O)[C@@H](NC(=O)[C@@H]1CCCN1C(=O)[C@H](CCCNC(=N)N)NC(=O)[C@H](CC(N)=O)NC(=O)[C@H](CC(N)=O)NC(=O)[C@H](CCCN)NC(C)=O)C(C)C)C(=O)N1CCC[C@H]1C(=O)N[C@@H](CCC(N)=O)C(=O)N1CCC[C@H]1C(=O)N[C@@H](CCCNC(=N)N)C(=O)N1CCC[C@H]1C(=O)N1CCC[C@H]1C(=O)N[C@@H](Cc1c[nH]cn1)C(=O)N1CCC[C@H]1C(=O)N[C@@H](CCCNC(=N)N)C(=O)NCCC(N)=O [compound 74] (Ac-[Orn]NNRPVYIPQPRPPHPR[βAla]-NH2) | 7.81 (≈ 3.61 µM) | >125
CC[C@H](C)[C@H](NC(=O)[C@H](Cc1ccc(O)cc1)NC(=O)[C@@H](NC(=O)[C@@H]1CCCN1C(=O)[C@H](CCCNC(=N)N)NC(=O)[C@H](CC(N)=O)NC(=O)[C@H](CC(N)=O)NC(=O)[C@H](CCCN)NC(C)=O)C(C)C)C(=O)N1CCC[C@H]1C(=O)N[C@@H](CCC(N)=O)C(=O)N1CCC[C@H]1C(=O)N[C@@H](CCCNC(=N)N)C(=O)N1CCC[C@H]1C(=O)N1CCC[C@H]1C(=O)N[C@@H](Cc1c[nH]cn1)C(=O)N1CCC[C@H]1C(=O)N[C@@H](CCCNC(=N)N)C(=O)NC1(C(N)=O)CCCCC1 [compound 75] (Ac-[Orn]NNRPVYIPQPRPPHPR[Ac6c]-NH2) | 7.81 (≈ 3.52 µM) | >125
CC[C@H](C)[C@H](NC(=O)[C@H](Cc1ccc(O)cc1)NC(=O)[C@@H](NC(=O)[C@@H]1CCCN1C(=O)[C@H](CCCNC(=N)N)NC(=O)[C@H](CC(N)=O)NC(=O)[C@H](CC(N)=O)NC(=O)CN)C(C)C)C(=O)N1CCC[C@H]1C(=O)N[C@@H](CCC(N)=O)C(=O)N1CCC[C@H]1C(=O)N[C@@H](CCCNC(=N)N)C(=O)N1CCC[C@H]1C(=O)N1CCC[C@H]1C(=O)N[C@@H](Cc1c[nH]cn1)C(=O)N1CCC[C@H]1C(=O)N[C@@H](CCCNC(=N)N)C(=O)N[C@@H](CC1CCCCC1)C(N)=O [compound 76] (H-GNNRPVYIPQPRPPHPR[Cha]-NH2) | 15.63 (≈ 7.28 µM) | 62.5 (≈ 29.1 µM)
CC[C@H](C)[C@H](NC(=O)[C@H](Cc1ccc(O)cc1)NC(=O)[C@@H](NC(=O)[C@@H]1CCCN1C(=O)[C@H](CCCNC(=N)N)NC(=O)[C@H](CC(N)=O)NC(=O)[C@H](CC(N)=O)NC(=O)CN)C(C)C)C(=O)N1CCC[C@H]1C(=O)N[C@@H](CCC(N)=O)C(=O)N1CCC[C@H]1C(=O)N[C@@H](CCCNC(=N)N)C(=O)N1CCC[C@H]1C(=O)N1CCC[C@H]1C(=O)N[C@@H](Cc1c[nH]cn1)C(=O)N1CCC[C@H]1C(=O)N[C@@H](CCCNC(=N)N)C(=O)N[C@H](CC(C)C)C(N)=O [compound 77] (H-GNNRPVYIPQPRPPHPR[dL]-NH2) | 31.25 (≈ 14.8 µM) | >125
CC[C@H](C)[C@H](NC(=O)[C@H](Cc1ccc(O)cc1)NC(=O)[C@@H](NC(=O)[C@@H]1CCCN1C(=O)[C@H](CCCNC(=N)N)NC(=O)[C@H](CC(N)=O)NC(=O)[C@H](CC(N)=O)NC(=O)CN)C(C)C)C(=O)N1CCC[C@H]1C(=O)N[C@@H](CCC(N)=O)C(=O)N1CCC[C@H]1C(=O)N[C@@H](CCCNC(=N)N)C(=O)N1CCC[C@H]1C(=O)N1CCC[C@H]1C(=O)N[C@@H](Cc1c[nH]cn1)C(=O)N1CCC[C@H]1C(=O)N[C@@H](CCCNC(=N)N)C(=O)N[C@H](C(N)=O)C(C)(C)C [compound 78] (H-GNNRPVYIPQPRPPHPR[Tle]-NH2) | 31.25 (≈ 14.8 µM) | 
CC[C@H](C)[C@H](NC(=O)[C@H](Cc1ccc(O)cc1)NC(=O)[C@@H](NC(=O)[C@@H]1CCCN1C(=O)[C@H](CCCNC(=N)N)NC(=O)[C@H](CC(N)=O)NC(=O)[C@H](CC(N)=O)NC(=O)CN)C(C)C)C(=O)N1CCC[C@H]1C(=O)N[C@@H](CCC(N)=O)C(=O)N1CCC[C@H]1C(=O)N[C@@H](CCCNC(=N)N)C(=O)N1CCC[C@H]1C(=O)N1CCC[C@H]1C(=O)N[C@@H](Cc1c[nH]cn1)C(=O)N1CCC[C@H]1C(=O)N[C@@H](CCCNC(=N)N)C(=O)NCCC(N)=O [compound 79] (H-GNNRPVYIPQPRPPHPR[βAla]-NH2) | 62.5 (≈ 30.3 µM) | >125
CC[C@H](C)[C@H](NC(=O)[C@H](Cc1ccc(O)cc1)NC(=O)[C@@H](NC(=O)[C@@H]1CCCN1C(=O)[C@H](CCCNC(=N)N)NC(=O)[C@H](CC(N)=O)NC(=O)[C@H](CC(N)=O)NC(=O)CN)C(C)C)C(=O)N1CCC[C@H]1C(=O)N[C@@H](CCC(N)=O)C(=O)N1CCC[C@H]1C(=O)N[C@@H](CCCNC(=N)N)C(=O)N1CCC[C@H]1C(=O)N1CCC[C@H]1C(=O)N[C@@H](Cc1c[nH]cn1)C(=O)N1CCC[C@H]1C(=O)N[C@@H](CCCNC(=N)N)C(=O)NC1(C(N)=O)CCCCC1 [compound 80] (H-GNNRPVYIPQPRPPHPR[Ac6c]-NH2) | 15.63 (≈ 7.37 µM) | >125
CC[C@H](C)[C@H](NC(=O)[C@H](CCCNC(=N)N)NC(=O)[C@@H]1CCCN1C(=O)[C@H](Cc1c[nH]cn1)NC(=O)[C@@H]1CCCN1C(=O)[C@@H]1CCCN1C(=O)[C@H](CCCNC(=N)N)NC(=O)[C@@H]1C[C@@H](O)CN1C(=O)[C@H](CCCNC(=N)N)NC(=O)[C@@H]1CCCN1C(=O)[C@@H](NC(=O)[C@H](Cc1ccc(O)cc1)NC(=O)[C@@H](NC(=O)[C@@H]1CCCN1C(=O)[C@H](CCCNC(=N)N)NC(=O)[C@H](CC(N)=O)NC(=O)[C@H](CC(N)=O)NC(=O)CN)C(C)C)[C@@H](C)CC)C(N)=O [compound 90] (H-GNNRPVYIPR[Hyp]RPPHPRI-NH2) | 7.81 (≈ 3.63 µM) | 
CC[C@H](C)[C@H](NC(=O)[C@H](Cc1ccc(O)cc1)NC(=O)[C@@H](NC(=O)[C@@H]1CCCN1C(=O)[C@H](CCCNC(=N)N)NC(=O)[C@H](CC(N)=O)NC(=O)[C@H](CC(N)=O)NC(=O)[C@H](CCCN)N=C(N(C)C)N(C)C)C(C)C)C(=O)N1CCC[C@H]1C(=O)N[C@@H](CCCNC(=N)N)C(=O)N1CCC[C@H]1C(=O)N[C@@H](CCCNC(=N)N)C(=O)N1CCC[C@H]1C(=O)N1CCC[C@H]1C(=O)N[C@@H](Cc1c[nH]cn1)C(=O)N1CCC[C@H]1C(=O)N[C@@H](CCCNC(N)=O)C(=O)N[C@@H](CC(C)C)C(N)=O [compound 151] ({Orn(α-tetramethylguanidino)}-NNRPVYIPRPRPPHP[Cit]L-NH2; N-terminus and C-terminus assumed) | 64 (≈ 27.9 µM) | 
